Results reported in ChEMBL document CHEMBL3431459, “Roche carnitine palmitoyltransferase modulator screening data (supplementary data associated with the publication CHEMBL2216752)”.
Converted amounts (≈) assume the structure as drawn.

How the values were obtained:
[1] = biological target: T1, Carnitine O-palmitoyltransferase 1, muscle isoform (Homo sapiens, UniProt Q92523); assay: SUPPLEMENTARY: Inhibition of Carnitine palmitoyltransferase 1, muscle isoform; design: species or system Muscle tissue
T1 sequence (Q92523 whole entry): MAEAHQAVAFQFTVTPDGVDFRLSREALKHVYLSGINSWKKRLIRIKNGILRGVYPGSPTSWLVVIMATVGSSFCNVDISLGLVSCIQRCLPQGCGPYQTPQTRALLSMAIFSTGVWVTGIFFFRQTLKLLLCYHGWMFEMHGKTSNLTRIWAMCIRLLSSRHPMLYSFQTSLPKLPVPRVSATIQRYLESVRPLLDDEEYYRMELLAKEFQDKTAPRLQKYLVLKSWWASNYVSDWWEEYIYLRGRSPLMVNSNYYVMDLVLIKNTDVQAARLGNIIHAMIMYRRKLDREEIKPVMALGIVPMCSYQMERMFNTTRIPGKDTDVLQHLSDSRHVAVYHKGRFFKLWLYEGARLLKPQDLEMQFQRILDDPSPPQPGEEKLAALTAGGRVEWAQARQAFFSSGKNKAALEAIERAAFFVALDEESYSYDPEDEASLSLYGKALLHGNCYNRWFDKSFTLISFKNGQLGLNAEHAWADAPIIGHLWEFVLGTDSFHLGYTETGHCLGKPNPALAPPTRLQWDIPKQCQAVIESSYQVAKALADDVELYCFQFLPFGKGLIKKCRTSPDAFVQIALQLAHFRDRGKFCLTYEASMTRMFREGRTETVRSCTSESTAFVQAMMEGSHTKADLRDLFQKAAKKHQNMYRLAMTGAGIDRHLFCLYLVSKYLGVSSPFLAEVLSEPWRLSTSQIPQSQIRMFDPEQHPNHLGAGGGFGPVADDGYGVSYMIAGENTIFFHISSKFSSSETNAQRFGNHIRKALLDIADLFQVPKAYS

[2] = biological target: T2, Carnitine O-palmitoyltransferase 2, mitochondrial (Homo sapiens, UniProt P23786); assay: (§1) SUPPLEMENTARY: Inhibition of Carnitine palmitoyltransferase 2
T2 sequence (P23786 whole entry): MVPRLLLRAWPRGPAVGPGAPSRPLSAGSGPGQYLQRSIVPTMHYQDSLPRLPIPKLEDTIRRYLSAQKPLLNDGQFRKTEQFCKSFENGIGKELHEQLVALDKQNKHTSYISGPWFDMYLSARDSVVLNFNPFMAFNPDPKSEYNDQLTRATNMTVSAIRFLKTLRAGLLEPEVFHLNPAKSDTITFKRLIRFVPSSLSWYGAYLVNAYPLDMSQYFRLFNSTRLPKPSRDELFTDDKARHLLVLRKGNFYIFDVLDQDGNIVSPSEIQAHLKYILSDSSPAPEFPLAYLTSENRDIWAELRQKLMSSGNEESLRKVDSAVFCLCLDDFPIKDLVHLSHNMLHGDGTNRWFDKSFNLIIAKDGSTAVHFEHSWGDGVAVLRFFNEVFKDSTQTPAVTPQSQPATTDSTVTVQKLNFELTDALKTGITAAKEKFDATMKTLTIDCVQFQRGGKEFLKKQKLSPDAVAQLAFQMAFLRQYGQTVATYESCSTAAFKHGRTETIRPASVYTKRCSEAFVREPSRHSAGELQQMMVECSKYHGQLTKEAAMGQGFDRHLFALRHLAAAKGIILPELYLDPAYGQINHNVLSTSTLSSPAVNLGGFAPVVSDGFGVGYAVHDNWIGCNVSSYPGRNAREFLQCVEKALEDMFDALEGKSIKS

[3] = biological target: T3, Carnitine O-palmitoyltransferase 2, mitochondrial (Rattus norvegicus, UniProt P18886); assay: as §1
T3 sequence (P18886 whole entry): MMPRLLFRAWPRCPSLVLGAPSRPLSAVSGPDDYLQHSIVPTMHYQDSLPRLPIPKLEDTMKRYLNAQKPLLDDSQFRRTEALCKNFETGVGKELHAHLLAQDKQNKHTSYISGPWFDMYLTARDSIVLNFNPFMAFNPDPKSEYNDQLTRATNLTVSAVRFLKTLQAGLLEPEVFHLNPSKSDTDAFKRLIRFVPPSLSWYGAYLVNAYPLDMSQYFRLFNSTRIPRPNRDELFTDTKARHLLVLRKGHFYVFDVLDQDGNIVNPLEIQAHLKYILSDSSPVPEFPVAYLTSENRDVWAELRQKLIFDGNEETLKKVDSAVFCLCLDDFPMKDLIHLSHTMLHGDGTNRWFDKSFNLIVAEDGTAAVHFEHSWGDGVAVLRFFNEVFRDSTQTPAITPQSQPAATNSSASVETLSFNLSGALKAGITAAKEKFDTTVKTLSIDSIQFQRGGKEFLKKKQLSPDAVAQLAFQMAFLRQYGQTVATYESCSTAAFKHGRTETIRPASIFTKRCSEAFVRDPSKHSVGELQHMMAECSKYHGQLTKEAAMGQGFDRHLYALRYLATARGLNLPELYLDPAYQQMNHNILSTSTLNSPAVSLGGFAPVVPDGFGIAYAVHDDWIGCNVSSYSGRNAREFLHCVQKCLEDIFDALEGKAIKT

[4] = biological target: T4, Carnitine O-palmitoyltransferase 1, liver isoform (Homo sapiens, UniProt P50416); assay: (§2) SUPPLEMENTARY: Inhibition of Carnitine palmitoyltransferase 1, liver isoform
T4 sequence (P50416 whole entry): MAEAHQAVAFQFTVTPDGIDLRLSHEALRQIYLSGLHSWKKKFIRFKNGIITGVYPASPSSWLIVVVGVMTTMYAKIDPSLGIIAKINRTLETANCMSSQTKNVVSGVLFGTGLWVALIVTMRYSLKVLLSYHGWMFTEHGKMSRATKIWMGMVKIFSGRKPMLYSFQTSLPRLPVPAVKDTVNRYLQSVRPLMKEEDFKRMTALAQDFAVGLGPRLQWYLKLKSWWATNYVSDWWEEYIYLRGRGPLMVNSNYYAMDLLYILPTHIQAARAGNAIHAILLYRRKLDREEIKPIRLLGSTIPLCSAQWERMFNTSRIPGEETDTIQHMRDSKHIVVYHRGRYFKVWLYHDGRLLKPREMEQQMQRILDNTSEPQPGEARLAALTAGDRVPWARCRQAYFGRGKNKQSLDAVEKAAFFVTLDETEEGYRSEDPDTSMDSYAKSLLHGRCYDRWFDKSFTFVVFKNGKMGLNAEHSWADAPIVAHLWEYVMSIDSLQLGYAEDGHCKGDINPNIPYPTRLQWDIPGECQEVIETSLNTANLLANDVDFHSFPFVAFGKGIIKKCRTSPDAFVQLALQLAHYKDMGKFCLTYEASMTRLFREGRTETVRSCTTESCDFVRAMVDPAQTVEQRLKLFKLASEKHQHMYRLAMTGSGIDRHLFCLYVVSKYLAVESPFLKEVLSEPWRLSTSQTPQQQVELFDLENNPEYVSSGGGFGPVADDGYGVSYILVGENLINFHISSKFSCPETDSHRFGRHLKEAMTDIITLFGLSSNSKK

[5] = biological target: T5, Carnitine O-palmitoyltransferase 1, liver isoform (Rattus norvegicus, UniProt P32198); assay: as §2
T5 sequence (P32198 whole entry): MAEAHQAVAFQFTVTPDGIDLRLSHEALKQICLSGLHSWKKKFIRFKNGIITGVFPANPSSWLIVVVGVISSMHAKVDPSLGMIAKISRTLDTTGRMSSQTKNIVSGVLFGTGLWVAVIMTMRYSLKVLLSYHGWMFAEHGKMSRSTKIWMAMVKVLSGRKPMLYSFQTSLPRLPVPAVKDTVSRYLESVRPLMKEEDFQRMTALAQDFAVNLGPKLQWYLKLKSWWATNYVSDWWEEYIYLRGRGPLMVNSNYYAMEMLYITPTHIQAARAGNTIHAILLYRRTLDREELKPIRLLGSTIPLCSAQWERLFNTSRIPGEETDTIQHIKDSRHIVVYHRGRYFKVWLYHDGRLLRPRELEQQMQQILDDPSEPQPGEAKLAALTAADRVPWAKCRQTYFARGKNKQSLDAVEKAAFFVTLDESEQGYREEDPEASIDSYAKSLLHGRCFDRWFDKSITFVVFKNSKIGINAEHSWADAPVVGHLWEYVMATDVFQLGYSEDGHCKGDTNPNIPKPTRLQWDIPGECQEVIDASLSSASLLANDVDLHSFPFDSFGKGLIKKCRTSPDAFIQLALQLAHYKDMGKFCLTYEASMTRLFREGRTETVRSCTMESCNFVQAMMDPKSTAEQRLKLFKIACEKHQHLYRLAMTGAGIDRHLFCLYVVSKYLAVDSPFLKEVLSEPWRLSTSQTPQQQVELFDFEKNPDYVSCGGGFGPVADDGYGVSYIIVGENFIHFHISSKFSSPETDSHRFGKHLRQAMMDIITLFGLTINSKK

[6] = SUPPLEMENTARY: Lyophilisation Solubility Assay (LYSA); format: physicochemical; conditions: read-out: Kinetic_solubility
[7] = SUPPLEMENTARY: Lipophilicity (log D) Determination by high-throughput shake-flask; format: physicochemical; conditions: octanol/water
[8] = SUPPLEMENTARY: PAMPA permeability assay; format: physicochemical; conditions: read-out: Permeability

O=C([C@H]1CCCCN1C(=O)COc1ccccc1)N1Cc2ccc(O[C@@H]3CCOC3)cc2C1
IC50 [1]: > 100000 nM
IC50 [2]: 489 nM
IC50 [3]: 1410 nM
IC50 [4]: 63.6 nM
IC50 [5]: 41.6 nM
solubility kinetic [6]: 81 µg/mL (≈ 180 µM)
logD [7]: 2.58
Papp [8]: 11.5 ×10⁻⁶ cm/s

Cc1cc(-c2nc([C@H]3CCCCN3C(=O)COc3ccccc3)no2)no1
IC50 [1]: > 100000 nM
IC50 [2]: > 100000 nM
IC50 [3]: > 100000 nM
IC50 [4]: 166 nM
IC50 [5]: 448 nM
solubility kinetic [6]: 39 µg/mL (≈ 106 µM)
logD [7]: 2.62
Papp [8]: 6.78 ×10⁻⁶ cm/s

N#Cc1ccc(-c2nc([C@H]3CCCCN3C(=O)COc3ccccc3)no2)cc1
IC50 [1]: > 100000 nM
IC50 [2]: 22000 nM
IC50 [3]: > 100000 nM
IC50 [4]: 80.7 nM
IC50 [5]: 143 nM
solubility kinetic [6]: 6 µg/mL (≈ 15.4 µM)
logD [7]: 3.16
Papp [8]: 5.52 ×10⁻⁶ cm/s

O=C([C@H]1CCCCN1C(=O)COc1ccccc1)N1Cc2ccc(OCC3CC3)cc2C1
IC50 [1]: > 100000 nM
IC50 [2]: 701 nM
IC50 [3]: 1120 nM
IC50 [4]: 259 nM
IC50 [5]: 263 nM
solubility kinetic [6]: 5 µg/mL (≈ 11.5 µM)
logD [7]: 2.97
Papp [8]: 2.7 ×10⁻⁶ cm/s

Cc1nn(C)c(-c2noc([C@H]3CCCCN3C(=O)COc3ccccc3)n2)c1Cl
IC50 [1]: > 100000 nM
IC50 [2]: > 100000 nM
IC50 [3]: > 100000 nM
IC50 [4]: 79.1 nM
IC50 [5]: 252 nM
solubility kinetic [6]: < 1 µg/mL
logD [7]: 3.61
Papp [8]: 1.68 ×10⁻⁶ cm/s

COc1ccc(Cl)cc1S(=O)(=O)c1cn(CCC(=O)O)c2ccc(C(=O)Nc3ccccc3)cc12
IC50 [1]: 9020 nM
IC50 [2]: > 100000 nM
IC50 [3]: > 100000 nM
IC50 [4]: 7.1 nM
IC50 [5]: 3 nM
solubility kinetic [6]: 251 µg/mL (≈ 489 µM)
logD [7]: 0.56
Papp [8]: 0.39 ×10⁻⁶ cm/s

O=C(COc1ccccc1)N1CCCC[C@@H]1c1nnn(-c2ccc3[nH]ccc3c2)n1
IC50 [1]: > 100000 nM
IC50 [2]: 47300 nM
IC50 [3]: > 100000 nM
IC50 [4]: 130 nM
IC50 [5]: 162 nM
solubility kinetic [6]: < 1 µg/mL
logD [7]: 3.88
Papp [8]: 2.27 ×10⁻⁶ cm/s
